In patent publication US20100285957A1, “THIAZOLYLOXYPHENYLAMIDINES OR THIADIAZOLYLOXYPHENYLAMIDINES AND THEIR USE AS FUNGICIDES” (Bayer CropScience AG, priority 2007, published 2010):
Where two headings read alike, the source gives them in different places.

Legend:
[1] = tested on: Phakopsora pachyrhizi; assay: Phakopsora test (soya)/protective; assay type: in vivo; details: 264 h, 100 ppm active substance, protective, evaluation 11 days after inoculation, read-out: degree of effectiveness
Description: Phakopsora Test (Soya)/Protective
(§1) To prepare a suitable active substance composition, 1 part by weight of active substance is mixed with the given amounts of solvent and emulsifier and the concentrate is diluted to the desired concentration using water.
For the testing of protective effectiveness, young plants are sprayed with the active substance composition in the application rate given. After the spray coating has been dried on, the plants are inoculated with an aqueous suspension of the spores of Phakopsora pachyrhizi and then remain in an incubation chamber at approximately 20° C. and 80% relative humidity for 1 day.
Evaluation is carried out 11 days after the inoculation. In this connection, 0% means a degree of effectiveness corresponding to that of the control, while a degree of effectiveness of 100% means that no infestation is observed.

[2] = tested on: Uromyces appendiculatus; assay: Uromyces test (beans)/protective; assay type: in vivo; details: 240 h, 100 ppm active substance, protective, evaluation 10 days after inoculation, read-out: degree of effectiveness
Description: Uromyces Test (Beans)/Protective [table] To prepare a suitable active substance composition, 1 part by weight of active substance is mixed with the given amounts of solvents and emulsifier and the concentrate is diluted to the desired concentration using water. For the testing of protective effectiveness, young plants are sprayed with the active substance composition in the application rate given. After the spray coating has been dried on, the plants are inoculated with an aqueous suspension of the spores of the bean rust pathogen Uromyces appendiculatus and then remain in an incubation chamber at approximately 20° C. and 100% relative humidity for 1 day. The plants are then placed in a greenhouse at approximately 21° C. and a relative humidity of approximately 90%. Evaluation is carried out 10 days after the inoculation. In this connection, 0% means a degree of effectiveness corresponding to that of the control, while a degree of effectiveness of 100% means that no infestation is observed.

[3] = tested on: Alternaria solani; assay: Alternaria test (tomato)/protective; assay type: in vivo; details: 168 h, 500 ppm active substance, protective, evaluation 7 days after inoculation, read-out: degree of effectiveness
Description: Alternaria Test (Tomato)/Protective [table] To prepare a suitable active substance composition, 1 part by weight of active substance is mixed with the given amounts of solvent and emulsifier and the concentrate is diluted to the desired concentration using water. For the testing of protective effectiveness, young tomato plants are sprayed with the active substance composition in the application rate given. 1 day after the treatment, the plants are inoculated with a suspension of the spores of Alternaria solani and then stand at 100% relative humidity and 20° C. for 24 h. Subsequently, the plants stand at 96% relative humidity and a temperature of 20° C. Evaluation is carried out 7 days after the inoculation. In this connection, 0% means a degree of effectiveness corresponding to that of the control, while a degree of effectiveness of 100% means that no infestation is observed.

[4] = tested on: Puccinia recondita var. tritici; assay: Puccinia test (wheat)/protective; assay type: in vivo; details: 240 h, 1000 ppm active substance, protective, evaluation 10 days after inoculation, read-out: degree of effectiveness
Description: Puccinia Test (Wheat)/Protective
as §1
For the testing of protective effectiveness, young plants are sprayed with the active substance composition in the application rate given. After the spray coating has been dried on, the plants are sprayed with a suspension of the conidia of Puccinia recondita var. tritici. The plants remain in an incubation chamber at 20° C. and 100% relative humidity for 48 hours.
The plants are then placed in a greenhouse at a temperature of approximately 20° C. and a relative humidity of 80%, in order to encourage the development of rust pustules.
Evaluation is carried out 10 days after the inoculation. In this connection, 0% means a degree of effectiveness corresponding to that of the control, while a degree of effectiveness of 100% means that no infestation is observed.

[5] = physchem
[6] = tested on: Pyrenophora teres; assay: Pyrenophora teres test (barley)/protective; assay type: in vivo; details: 500 ppm active substance, protective, evaluation 7-9 days after inoculation, read-out: degree of effectiveness
Description: Pyrenophora teres Test (Barley)/Protective
as §1
For the testing of protective effectiveness, young barley plants are sprayed with the active substance composition in the application rate given. 1 day after the treatment, the plants are inoculated with an aqueous suspension of the spores of Pyrenophora teres and then remain at 100% relative humidity and 20° C. for 48 h. Subsequently, the plants are placed in a greenhouse at 80% relative humidity and a temperature of 20° C.
Evaluation is carried out 7-9 days after the inoculation. In this connection, 0% means a degree of effectiveness corresponding to that of the control, while a degree of effectiveness of 100% means that no infestation is observed.

[7] = tested on: Sphaerotheca fuliginea; assay: Sphaerotheca test (cucumber)/protective; assay type: in vivo; details: Podosphaera fuliginea, 168 h, 100 ppm active substance, protective, evaluation 7 days after inoculation, read-out: degree of effectiveness
Description: Sphaerotheca Test (Cucumber)/Protective [table] To prepare a suitable active substance composition, 1 part by weight of active substance is mixed with the given amounts of solvents and emulsifier and the concentrate is diluted to the desired concentration using water. For the testing of protective effectiveness, young plants are sprayed with the active substance composition in the application rate given. After the spray coating has been dried on, the plants are inoculated with an aqueous suspension of spores of Sphaerotheca fuliginea. The plants are then placed in a greenhouse at approximately 23° C. and a relative humidity of approximately 70%. Evaluation is carried out 7 days after the inoculation. In this connection, 0% means a degree of effectiveness corresponding to that of the control, while a degree of effectiveness of 100% means that no infestation is observed.

[8] = tested on: Blumeria graminis f.sp. hordei; assay: Blumeria graminis test (barley)/protective; assay type: in vivo; details: 168 h, 1000 ppm active substance, protective, evaluation 7 days after inoculation, read-out: degree of effectiveness
Description: Blumeria graminis Test (Barley)/Protective
as §1
For the testing of protective effectiveness, young plants are sprayed with the active substance composition in the application rate given.
After the spray coating has been dried on, the plants are dusted with spores of Blumeria graminis f.sp. hordei.
The plants are placed in a greenhouse at a temperature of approximately 20° C. and a relative humidity of approximately 80%, in order to encourage the development of mildew pustules.
Evaluation is carried out 7 days after the inoculation. In this connection, 0% means a degree of effectiveness corresponding to that of the control, while a degree of effectiveness of 100% means that no infestation is observed.

Row | Compound | pest or weed control at 100 ppm [1] [%] | pest or weed control at 100 ppm [2] [%] | pest or weed control at 500 ppm [3] [%] | pest or weed control at 1000 ppm [4] [%] | logP ([5]; pH 2.3) | pest or weed control at 500 ppm [6] [%] | pest or weed control at 100 ppm [7] [%] | pest or weed control at 1000 ppm [8] [%] | logP [5]
1 | CCN(C)C=Nc1cc(C)c(Oc2nc(C3CC3)ns2)cc1C [Compound 1, N′-{4-[(3-Cyclopropyl-1,2,4-thiadiazol-5-yl)oxy]-2,5-dimethylphenyl}-N-ethyl-N-methylimidoformamide] | ≥ 80 | ≥ 70 | ≥ 70 | ≥ 70 | 1.59 | ≥ 70 | ≥ 70 | ≥ 70 | –
2 | Cc1cc(Oc2nc(C3CC3)ns2)c(C)cc1N=CN(C)C(C)C [Compound 2, N′-{4-[(3-Cyclopropyl-1,2,4-thiadiazol-5-yl)oxy]-2,5-dimethylphenyl}-N-methyl-N-(1-methyl-ethyl)imidoformamide] | ≥ 80 | ≥ 70 | ≥ 70 | ≥ 70 | 1.91 | ≥ 70 | ≥ 70 | ≥ 70 | –
3 | CCN(C)C=Nc1cc(C)c(Oc2nc(C3(Cl)CC3)cs2)cc1C [Compound 5, N′-(4-{[4-(1-Chlorocyclopropyl)-1,3-thiazol-2-yl]oxy}-2,5-dimethylphenyl)-N-ethyl-N-methyl-imidoformamide] | ≥ 80 | ≥ 70 | ≥ 70 | ≥ 70 | – | ≥ 70 | ≥ 70 | ≥ 70 | 4.8
4 | CCN(C)C=Nc1cc(C)c(Oc2nc(C3(Cl)CC3)c(Cl)s2)cc1C [Compound 7, N′-(4-{[5-Chloro-4-(1-chlorocyclopropyl)-1,3-thiazol-2-yl]oxy}-2,5-dimethylphenyl)-N-ethyl-N-methylimidoformamide] | ≥ 80 | ≥ 70 | ≥ 70 | ≥ 70 | 1.82 | ≥ 70 | ≥ 70 | ≥ 70 | –
5 | Cc1cc(Oc2nc(C3(Cl)CC3)c(Cl)s2)c(C)cc1/N=C/N1CCCCC1 [Compound 8, 4-{[5-Chloro-4-(1-chlorocyclopropyl)-1,3-thiazol-2-yl]oxy}-2,5-dimethyl-N-[(1E)-piperidin-1-ylmethylidene]aniline] | ≥ 80 | ≥ 70 | ≥ 70 | ≥ 70 | 2.47 | ≥ 70 | ≥ 70 | ≥ 70 | 6.02
6 | Cc1cc(Oc2nc(C3(C)CC3)ns2)c(C)cc1N=CN(C)C(C)C [Compound 10, N′-(2,5-Dimethyl-4-{[3-(1-methylcyclopropyl)-1,2,4-thiadiazol-5-yl]oxy}phenyl)-N-methyl-N-(1-methylethyl)imidoformamide] | ≥ 80 | ≥ 70 | – | ≥ 70 | 2.03 | ≥ 70 | ≥ 70 | ≥ 70 | –
7 | CCN(C)C=Nc1cc(C)c(Oc2nc(C3(Cl)CC3)ns2)cc1C [Compound 12, N′-(4-{[3-(1-Chlorocyclopropyl)-1,2,4-thiadiazol-5-yl]oxy}-2,5-dimethylphenyl)-N-ethyl-N-methylimidoformamide] | ≥ 80 | ≥ 70 | – | ≥ 70 | 1.59 | ≥ 70 | ≥ 70 | ≥ 70 | –
8 | Cc1cc(Oc2nc(C3(Cl)CC3)c(Cl)s2)c(C)cc1N=CN(C)C(C)C [Compound 17, N′-(4-{[5-Chloro-4-(1-chlorocyclopropyl)-1,3-thiazol-2-yl]oxy}-2,5-dimethylphenyl)-N-methyl-N-(1-methylethyl)imidoformamide] | ≥ 80 | ≥ 70 | – | ≥ 70 | 2.22 | ≥ 70 | ≥ 70 | ≥ 70 | 5.86
9 | CCN(C)C=Nc1cc(C)c(Oc2nc(C3(CC)C(C)C3(Cl)Cl)ns2)cc1C (stereo not drawn) [Compound 27, N′-(4-{[3-(2,2-Dichloro-1-ethyl-3-methylcyclopropyl)-1,2,4-thiadiazol-5-yl]oxy}-2,5-dimethylphenyl)-N-ethyl-N-methylimidoformamide] | ≥ 80 | ≥ 70 | – | – | 2.21 | ≥ 70 | ≥ 70 | – | –
10 | CCN(C)C=Nc1cc(C)c(Oc2nc(C3(F)CC3)cs2)cc1C [Compound 29, N-Ethyl-N′-(4-{[4-(1-fluorocyclopropyl)-1,3-thiazol-2-yl]oxy}-2,5-dimethylphenyl)-N-methylimidoformamide] | ≥ 80 | ≥ 70 | ≥ 70 | – | 1.58 | ≥ 70 | ≥ 70 | – | 4.38
11 | CCN(C)C=Nc1cc(C)c(Oc2nc(C3(F)CC3)c(Cl)s2)cc1C [Compound 30, N′-(4-{[5-Chloro-4-(1-fluorocyclopropyl)-1,3-thiazol-2-yl]oxy}-2,5-dimethylphenyl)-N-ethyl-N-methylimidoformamide] | ≥ 80 | ≥ 70 | – | – | 1.92 | ≥ 70 | ≥ 70 | – | 5.08
